This experiment addresses T1, bovine serum albumin (BSA) (Bos taurus, UniProt P02769).
T1 construct: gene ALB
Nature of the experiment: fluorescence emission titration (BSA quenching, excitation […] nm), double-log plot; value is Ka, n = […]. Type of experiment: binding. The settings on record: read-out: fluorescence emission titration (BSA quenching, excitation 287 nm), double-log p (converted).

T1 sequence (P02769 25-607): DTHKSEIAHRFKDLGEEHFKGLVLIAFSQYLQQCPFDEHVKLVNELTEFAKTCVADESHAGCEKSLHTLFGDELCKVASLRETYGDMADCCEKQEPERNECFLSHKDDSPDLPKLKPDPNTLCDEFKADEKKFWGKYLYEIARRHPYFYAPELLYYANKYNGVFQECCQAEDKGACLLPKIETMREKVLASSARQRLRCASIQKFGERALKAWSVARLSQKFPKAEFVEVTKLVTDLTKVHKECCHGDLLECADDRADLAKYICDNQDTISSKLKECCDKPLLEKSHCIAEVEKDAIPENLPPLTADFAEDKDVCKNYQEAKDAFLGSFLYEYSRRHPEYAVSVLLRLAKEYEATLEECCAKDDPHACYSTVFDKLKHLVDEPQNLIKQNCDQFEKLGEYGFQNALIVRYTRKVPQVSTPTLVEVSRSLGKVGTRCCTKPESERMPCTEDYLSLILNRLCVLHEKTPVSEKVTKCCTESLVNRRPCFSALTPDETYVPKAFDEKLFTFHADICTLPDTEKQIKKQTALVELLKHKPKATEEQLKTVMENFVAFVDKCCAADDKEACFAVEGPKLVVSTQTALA

As to `C=CCN1C(=O)C(=CC(=O)c2cccc(N)c2)c2ccccc21` [4d, 1-Allyl-3-(2-(3-aminophenyl)-2-oxoethylidene)indolin-2-one], the Kd was 164 nM.

These data come from PMC10518658, “Dual activity of indolin-2-ones containing an arylidene motif: DNA and BSA interaction” (RSC Advances, 2023).
